Experimental data published in patent publication US10064922B2, “Compositions and methods for immune tolerance induction” (The Research Foundation for The State University of New York, priority 2011, dated 2018).

Tested on: HA mice
Assay: Antigen specificity: ovalbumin given concomitantly with FVIII or FVIII-PS/PC at a distant site
Type: in vivo
Conditions: ovalbumin concomitantly administered at a distant anatomical site; ±SEM
From the text: During the reverse vaccination strategy, it is desirable that the immunization should not interfere with the ability of the immune system to mount immune response against other antigens and pathogens. In order to investigate the antigen specificity and effect of immunization on the systemic immune suppression, another foreign antigen; ovalbumin (Ova) was concomitantly administered with either FVIII or FVIII-PS/PC complexes, but at a distant anatomical site.

## Ova: ovalbumin, another foreign antigen given concomitantly at a distant anatomical site
  Anti-FVIII Nab titers: no anti-FVIII Nabs
